Assay results from BigSolDB 2.1.

Conditions: in water

CCCCCCCCn1cc[n+](C)c1.F[P-](F)(F)(F)(F)F
Conditions | solubility (mole fraction)
285.85 K | 9.4e-05
293.95 K | 0.000116
299.05 K | 0.000128
307.35 K | 0.000154
311.35 K | 0.000169
318.15 K | 0.000197
324.75 K | 0.000216
328.15 K | 0.000239
331.15 K | 0.000257
338.85 K | 0.000304
343.35 K | 0.000345
348.45 K | 0.000383
353.75 K | 0.000445
358.55 K | 0.000505
364.55 K | 0.000574

CCCCCCn1cc[n+](C)c1.F[P-](F)(F)(F)(F)F
Conditions | solubility (mole fraction)
286.45 K | 0.000326
296.65 K | 0.00041
302.65 K | 0.000448
307.85 K | 0.000503
312.95 K | 0.000545
319.35 K | 0.00066
326.35 K | 0.000734
331.75 K | 0.000852
336.15 K | 0.000919
340.25 K | 0.00105
345.85 K | 0.00113
350.75 K | 0.00128
355.25 K | 0.00144
359.95 K | 0.00157
363.05 K | 0.0018

CCCCn1cc[n+](C)c1.F[P-](F)(F)(F)(F)F
Conditions | solubility (mole fraction)
278.75 K | 0.0009
283.55 K | 0.00102
289.55 K | 0.00108
295.95 K | 0.00126
302.25 K | 0.00146
310.35 K | 0.00171
314.95 K | 0.00195
319.65 K | 0.00218
326.65 K | 0.00244
333.25 K | 0.0029
338.35 K | 0.00339
344.35 K | 0.00371
350.85 K | 0.00444
357.35 K | 0.00532
362.15 K | 0.00628
